Measurements: PMC12602695 (Nature Communications, 2025)

System: AcTPS2
Assay: product formation, ethyl acetate extraction, Michaelis-Menten fit
Format: biochemical, Astilbe chinensis
Settings: 50 mM Tris-HCl pH 7.5, 1 mM MgCl2, 2 mM DTT, 12.5% glycerol, 0.1% Tween 20, 30 °C, 1 h

Km: 23.8 µM
Structure (SMILES): CC(C)=CCC/C(C)=C/CC/C(C)=C/COP(=O)(O)OP(=O)(O)O [FPP, farnesyl diphosphate]
